Results as given in ChEMBL document CHEMBL5154875, “Discovery of Potent Orally Bioavailable WD Repeat Domain 5 (WDR5) Inhibitors Using a Pharmacophore-Based Optimization” (J Med Chem, 2022).

Columns and labels:
K562 = experiment: Anti-proliferative activity against human K562 cells assessed as inhibition of cell proliferation incubated for 5 days by Cell Titre Glo luminescent assay; type: functional; settings: Homo sapiens, K562, 120 h, time 5 day
MOLM-13 = experiment: Anti-proliferative activity against human MOLM-13 cells assessed as inhibition of cell proliferation incubated for 5 days by Cell Titre Glo luminescent assay; type: functional; settings: Homo sapiens, MOLM-13, 120 h, time 5 day
MV4-11 = experiment: Anti-proliferative activity against human MV4-11 cells assessed as inhibition of cell proliferation incubated for 5 days by Cell Titre Glo luminescent assay; type: functional; settings: Homo sapiens, MV4-11, 120 h, time 5 day
[1] = target: WD repeat-containing protein 5 (Homo sapiens, UniProt P61964); experiment: Competitive binding affinity to N-terminal 6xHis-SUMO-tagged human WDR5 (22 to 334 residues) expressed in Escherichia coli BL21-Gold (DE3) cells assessed as inhibition constant using 10-mer-Thr-FAM peptide as substrate incubated for 1 hr by Lantha Screen based TR-FRET assay
[2] = Half life in CD-1 mouse at 10 mg/kg, po measured 0.083 to 24 hrs post-treatment by LC-MS/MS analysis; type: ADME, organism-based; settings: mouse, in vivo, po, 10 mg/kg, time 0.083-24 hrs
[3] = Kinetic solubility of compound in PBS at pH 7.4 at 100 uM incubated for 1 hr by UV-visible spectroscopy analysis; type: physicochemical; settings: buffer, pH 7.4, 1 h, 100 µM
[4] = Volume of distribution at steady state in CD-1 mouse at 3 mg/kg, iv measured 0.083 to 24 hrs post-treatment by LC-MS/MS analysis; type: ADME, organism-based; settings: mouse, in vivo, iv, 3 mg/kg, time 0.083-24 hrs
[5] = AUC (0 to infinity) in CD-1 mouse at 10 mg/kg, po measured 0.083 to 24 hrs post-treatment by LC-MS/MS analysis; type: ADME, organism-based; set-up: dose 10 mg/kg, time upper 24 hrs, time lower 0.083 hrs, route po; settings: mouse, in vivo
[6] = AUC (0 to infinity) in CD-1 mouse at 3 mg/kg, iv measured 0.083 to 24 hrs post-treatment by LC-MS/MS analysis; type: ADME, organism-based; set-up: time upper 24 hrs, time lower 0.083 hrs, dose 3 mg/kg, route iv; settings: mouse, in vivo
[7] = Cmax in CD-1 mouse at 10 mg/kg, po measured 0.083 to 24 hrs post-treatment by LC-MS/MS analysis; type: ADME, organism-based; set-up: time lower 0.083 hrs, dose 10 mg/kg, time upper 24 hrs, route po; settings: mouse, in vivo
[8] = Oral bioavailability in CD-1 mouse at 10 mg/kg measured 0.083 to 24 hrs post-treatment by LC-MS/MS analysis; type: ADME, organism-based; settings: mouse, in vivo, po, 10 mg/kg, time 0.083-24 hrs

Row | SMILES | GI50 (K562) [nM] | GI50 (MOLM-13) [nM] | GI50 (MV4-11) [nM] | Ki [1] [nM] | t1/2 [2] [h] | Kinetic_solubility [3] [µM] | Vdss [4] [L/kg] | AUC [5] [ng·h/mL] | AUC [6] [ng·h/mL] | Cmax [7] [ng/mL] | F [8] [%]
1 | COc1cc(CN2CCc3c(cc(Cn4ccnc4C(C)C)cc3-c3cn(C)nc3C(F)(F)F)C2=O)cc(OC)c1 | 6000 | 7700 | 4700 | 3.4 | – | – | – | – | – | – | –
2 | COc1cc(CN2CCc3c(cc(Cn4ccn(C)c4=N)cc3-c3c(C)nn(C)c3C)C2=O)cc(OC)c1 | > 30000 | > 30000 | 19000 | 0.21 | – | – | – | – | – | – | –
3 | CCc1nccn1Cc1cc2c(c(-c3cn(C)nc3C(F)(F)F)c1)CCN(Cc1cc(OC)cc(OC)c1)C2=O | 7500 | 240 | 94 | – | – | – | – | – | – | – | –
4 | COc1cc(CN2CCc3c(cc(Cn4cnnc4)cc3-c3cn(C)nc3C(F)(F)F)C2=O)cc(OC)c1 | > 30000 | > 30000 | 16000 | 6.5 | – | – | – | – | – | – | –
5 | COc1cc(CN2CCc3c(cc(Cn4ccn(C)c4=N)cc3-c3cc(C)nn3C)C2=O)cc(OC)c1 | > 30000 | 270 | 85 | 0.025 | – | – | – | – | – | – | –
6 | Cc1cccnc1CN1CCc2c(cc(Cn3ccnc3C)cc2-c2cn(C)nc2C(F)(F)F)C1=O | 22000 | 4700 | 3000 | 0.59 | – | – | – | – | – | – | –
7 | CCn1cc(-c2cc(Cn3ccnc3)cc3c2CCN([C@H](c2cc(OC)ccn2)C2CC2)C3=O)c(C(F)(F)F)n1 | 1500 | 37 | 19 | < 0.02 | 1.2 | – | – | – | – | – | –
8 | COc1cc(CN2CCc3c(cc(Cn4ccn(C)c4=N)cc3-c3cc(C)cnc3C)C2=O)cc(OC)c1 | > 30000 | 2400 | 640 | 0.022 | – | – | – | – | – | – | –
9 | Cc1cccc(CN2CCc3c(cc(Cn4ccnc4C)cc3-c3cn(C)nc3C(F)(F)F)C2=O)n1 | 13000 | 330 | 170 | 0.039 | – | – | – | – | – | – | –
10 | CCn1cc(-c2cc(Cn3ccnc3C)cc3c2CCN([C@H](C)c2cc(OC)ccn2)C3=O)c(C(F)(F)F)n1 | 7800 | 110 | 39 | 0.029 | – | – | – | – | – | – | –
11 | CCc1ccnc(CN2CCc3c(cc(Cn4ccnc4C)cc3-c3cn(CC)nc3C(F)(F)F)C2=O)c1 | 5600 | 43 | 24 | < 0.02 | – | – | – | – | – | – | –
12 | COc1cc(CN2CCc3c(cc(Cn4ccn(C)c4=N)cc3-c3conc3C)C2=O)cc(OC)c1 | > 30000 | 2100 | 850 | 0.046 | – | – | – | – | – | – | –
13 | COc1cc(CN2CCc3c(cc(Cn4ccn(C)c4=N)cc3-c3cn(C)nc3C)C2=O)cc(OC)c1 | > 30000 | 570 | 210 | 0.023 | – | – | – | – | – | – | –
14 | COc1cc(CN2CCc3c(cc(Cn4ccn(C)c4=N)cc3-c3cc(C)ncc3C)C2=O)cc(OC)c1 | > 30000 | 560 | 200 | < 0.02 | – | – | – | – | – | – | –
15 | COc1cc(CN2CCc3c(cc(Cn4ccnc4C(F)F)cc3-c3cn(C)nc3C(F)(F)F)C2=O)cc(OC)c1 | > 30000 | 20000 | 12000 | > 6.7 | – | – | – | – | – | – | –
16 | CCn1cc(-c2cc(Cn3ccn(C)c3=N)cc3c2CCN(Cc2cc(OC)cc(OC)c2)C3=O)c(C(F)(F)F)n1 | > 30000 | 110 | 36 | < 0.02 | – | – | – | – | – | – | –
17 | Cc1nccn1Cc1cc2c(c(-c3cn(C)nc3C(F)(F)F)c1)CCN(Cc1ccccn1)C2=O | > 30000 | 3100 | 1500 | 0.23 | – | – | – | – | – | – | –

Row | SMILES | GI50 (K562) [nM] | GI50 (MOLM-13) [nM] | GI50 (MV4-11) [nM] | Ki [1] [nM] | t1/2 [2] [h] | Kinetic_solubility [3] [µM] | Vdss [4] [L/kg] | AUC [5] [ng·h/mL] | AUC [6] [ng·h/mL] | Cmax [7] [ng/mL] | F [8] [%]
18 | COc1cc(CN2CCc3c(cc(Cn4ccnc4C)cc3-c3cn(C)nc3C(F)(F)F)C2=O)cc(OC)c1 | 3700 | 110 | 32 | < 0.02 | – | – | – | – | – | – | –
19 | Cc1ccnc(CN2CCc3c(cc(Cn4ccnc4C)cc3-c3cn(C)nc3C(F)(F)F)C2=O)c1 | 3600 | 33 | 23 | 0.02 | – | – | – | – | – | – | –
20 | COc1cc(CN2CCc3c(cc(Cn4ccn(C)c4=N)cc3-c3cccnc3C)C2=O)cc(OC)c1 | > 30000 | 3900 | 1200 | 0.036 | – | – | – | – | – | – | –
21 | COc1cc(CN2CCc3c(cc(Cn4ccnc4C4CC4)cc3-c3cn(C)nc3C(F)(F)F)C2=O)cc(OC)c1 | 8500 | 710 | 240 | 0.028 | – | – | – | – | – | – | –
22 | CCn1cc(-c2cc(Cn3ccnc3C)cc3c2CCN(Cc2cc(OC)ccn2)C3=O)c(C(F)(F)F)n1 | 13000 | 59 | 34 | < 0.02 | – | – | – | – | – | – | –
23 | CCn1cc(-c2cc(Cn3ccnc3C)cc3c2CCN([C@H](c2cc(C)ccn2)C2CC2)C3=O)c(C(F)(F)F)n1 | 2500 | 43 | 17 | < 0.02 | 1.2 | 66 | 1.1 | 1000 | 2075 | 1083 | 15
24 | COc1cc(CN2CCc3c(cc(Cn4ccn(C)c4=N)cc3-c3ccncc3C)C2=O)cc(OC)c1 | > 30000 | 640 | 230 | 0.029 | – | – | – | – | – | – | –
25 | Cc1cc(CN2CCc3c(cc(Cn4ccnc4C)cc3-c3cn(C)nc3C(F)(F)F)C2=O)ccn1 | 13000 | 550 | 270 | 0.064 | – | – | – | – | – | – | –
26 | COc1cc(CN2CCc3c(cc(Cn4ccn(C)c4=N)cc3-c3ccc(F)cc3O)C2=O)cc(OC)c1 | > 30000 | 220 | 88 | 0.035 | – | – | – | – | – | – | –
27 | CCc1ccnc(CN2CCc3c(cc(Cn4ccnc4C)cc3-c3cn(C)nc3C(F)(F)F)C2=O)c1 | 4100 | 25 | 16 | < 0.02 | – | – | – | – | – | – | –
28 | CCn1cc(-c2cc(Cn3ccnc3)cc3c2CCN([C@H](C)c2cc(OC)ccn2)C3=O)c(C(F)(F)F)n1 | 12000 | 100 | 39 | 0.028 | – | – | – | – | – | – | –
29 | COc1cc(CN2CCc3c(cc(Cn4ccn(C)c4=N)cc3-c3cccnc3OC)C2=O)cc(OC)c1 | > 30000 | 1600 | 560 | 0.055 | – | – | – | – | – | – | –
30 | COc1cc(CN2CCc3c(cc(Cn4ccn(C)c4=N)cc3-c3cn(C)nc3C(F)(F)F)C2=O)cc(OC)c1 | > 30000 | 110 | 39 | < 0.02 | – | – | – | – | – | – | –
31 | COc1cc(CN2CCc3c(cc(Cn4cccc4)cc3-c3cn(C)nc3C(F)(F)F)C2=O)cc(OC)c1 | > 30000 | 15000 | 15000 | > 6.7 | – | – | – | – | – | – | –
32 | COc1cc(CN2CCc3c(cc(Cn4cccn4)cc3-c3cn(C)nc3C(F)(F)F)C2=O)cc(OC)c1 | > 30000 | 20000 | 22000 | > 6.7 | – | – | – | – | – | – | –
33 | COc1cc(CN2CCc3c(cc(Cn4ccnc4)cc3-c3cn(C)nc3C(F)(F)F)C2=O)cc(OC)c1 | 9100 | 180 | 59 | < 0.02 | – | – | – | – | – | – | –
34 | COc1cc(CN2CCc3c(cc(Cn4ccn(C)c4=N)cc3-c3ccc(F)cc3OC)C2=O)cc(OC)c1 | 18000 | 420 | 210 | 0.033 | – | – | – | – | – | – | –
